We go through 2 compounds from patent US20190300927A1, “METABOLIC ASSAY FOR BACTERIAL GROWTH AND GRAM TYPING” (SELUX DIAGNOSTICS, INC., priority 2018, published 2019).

The subject of one test is gram-negative organisms. To be noted: Fung and Miller 1973; cited from earlier work.
The next test relates to gram-positive organisms. To be noted: Fung and Miller 1973; cited from earlier work.
The test system of test [1] is clinical isolates of Pseudomonas aeruginosa. The test can be described thus: Resorufin fluorescence after 4 hour incubation with P. aeruginosa clinical isolates (FIG. 3). The class given is cell-based. To be noted: resorufin alone 100 μM, no methylene blue, Mueller-Hinton broth, Ex560/Em590. On the procedure:
FIG. 3 Experiment: Four clinical isolates of P aeruginosa were inoculated into MHB at a 1:200 dilution from a 0.5 McFarland standard. Resorufin was added to each well at a 100 μM final concentration. Plates were incubated shaking for 4 hours at 37° C. Fluorescence was read at Ex560/Em590. Uninoculated MIHB with resorufin was included as a negative control.

Consider `CN(C)c1ccc2nc3ccc(=[N+](C)C)cc-3sc2c1` [methylene blue, Methylene blue], for which the “effect of high concentrations on gram-negative organisms” value in the test with gram-negative organisms is listed as “tolerated”. Moreover, in the test on gram-positive organisms, the “effect of high concentrations on gram-positive organisms” value is “inhibitory”.

Turning to `O=c1ccc2nc3ccc(O)cc3oc-2c1` [resorufin], the “remaining resorufin fluorescence after P. aeruginosa growth” value in test [1] was “does not eliminate the resorufin fluorescence”.
